In PMC12844124, “Synthesis and Study of Substituted Chalcones Combined with Fluoroazobenzenes—New Photoswitches for Application in Biological Systems” (Molecules, 2026):

Experiments:
[1] = Changes over time of Z to E transition by 19F NMR; format: physicochemical; settings: light 525 nm, 100 mM in DMSO
Text: We can observe that for electromagnetic radiation in the range of wavelengths 390 nm to 610 nm, transitions from E to Z of about 0–76% are obtained. The best results for all compounds are in visible wavelengths 505 nm or 525 nm (30.59–75.44%). From analyzing Figure 2 we can draw the following conclusions: all synthesized compounds undergo switching under visible light (this is important because UV radiation can damage the DNA of cells, inhibiting replication and, as a result, preventing cell division). For the 2,6-difluoro substituents (17i), (17j), (17k), and (17l) with values of 74.84%, 73.2%, 74.39%, and 75.44%, respectively, the largest share of the Z configuration is at (525 nm) and, for the rest of (17a), (17b), (17c), (17e), (17f), and (17g), it is in range of 30.57–47.13% at 505 nm. […] Multiple cycles of photoreversible switching under alternating green and blue light irradiation, with no significant photobleaching or degradation, confirmed the repeatable and robust photochromic conversion of the synthesized azobenzenes (Figure 2b). Then we measured changes over time (transitions from Z to E, upon irradiation with 505 nm for (17a–17c) and (17e–17g), and 525 nm for (17i–17l) compounds (Figure 3, and see Section S4.3 in Supplementary Materials).

BJ fibroblasts = assay: Cell cycle analysis by flow cytometry, BJ fibroblasts; format: cell-based, human; settings: Z conformer, concentration not given
Description: (§1) The BJ or PC-3 cells were treated as described previously, with the exception that 0.15 × 10^6 cells per well were seeded in 6-well plates. After 24 h of treatment, cells were harvested by trypsinization (Biowest, Nuaillé, France, L0931), washed twice, resuspended in PBS, and added to cold 70% ethanol for overnight fixation at −20 °C. Subsequently, cells were centrifuged and resuspended in PBS containing 5 µg/mL of propidium iodide in PBS (Sigma-Aldrich, St. Louis, MO, USA, 4170), 0.1% Triton X-100, and 10 µg/mL of DNAse-free RNAse (A&A Biotechnology, Gdansk, Poland, 1006-10) in the dark for 4 h at 37 °C. FACS analysis was performed using a FACSCanto II flow cytometer and FACSDiva, version 9.0 software (BD Biosciences, San Jose, CA, USA). Flow rate was set to about 1000 events/cells per second. Signals from at least 10,000 events per sample were captured. The percentages of PC-3 cells in cell cycle phases (G0/G1, S, and G2/M) were determined using ModFit LT 4.1.7 (Verity Software House, Topsham, ME, USA).

PC-3 cells [2] = assay: MTS cell proliferation assay, PC-3; format: cell-based, human; settings: for IC50: Homo sapiens
Description: Human BJ fibroblasts (American Type Cell Culture Collection, Manassas, VA, USA, CRL-2522) and human prostate cancer cell line PC-3 (American Type Cell Culture Collection, Manassas, VA, USA, CRL-1435), derived from bone metastases, were routinely grown in […]) Medium (ThermoFisher, Waltham, MA, USA, 21127-022) and supplemented with heat-inactivated 10% Fetal Bovine Serum (Biowest, France, […]) and 1% antibiotic solution (Biowest, Nuaillé, France, L0022), in a humidified 5% CO2 atmosphere at 37 °C. Cells were used between 3 and 20 passages. The 96-well plates were prepared by seeding 5 × 10^3 or 2.5 × 10^3 cells per well, for 24 and 48 h treatments, respectively, with at least five technical and two biological repeats. […] The cells were treated with either the Z conformer of 17j, with continuous illumination with 525 nm light, or the E conformer. The Z conformer was prepared by illuminating its DMSO solution with 525 nm light overnight. The cell proliferation was analyzed with CellTiter Aqueous One Solution Cell Proliferation MTS (3-(4,5-dimethylthiazol-2-yl)-5-(3-carboxymethoxyphenyl)-2-(4-sulfophenyl)-2H-tetrazolium) Assay (Promega, Madison, WI, USA, G5430) after 24 or 48 h of treatment. The absorbance was measured at 490 and 670 nm with FLUOStar Omega plate reader (BMG LABTECH GmbH, Ortenberg, Germany). The statistical analysis was performed within R 4.5.1 project. […] The log-logistic four parametric model (4PL), with the lower limit boundary set to 0 and group fitting, was used, as available in the drc package, to fit cell proliferation data. […] The assessment metrics for model goodness of fit were performed with functions available in the drc package and with custom ones. When appropriate, the delta method was applied to obtain error of central tendency. To assess the goodness of fit for each of the biological replicates, deviance R^2 (DR^2) was calculated and assessed. […] The DR^2 was calculated according to the following Equation: 1 - (Dres/Dnull), where Dres-residual deviance and Dnull-null deviance (deviance of the model with mean as a predicted value). The null hypothesis was assessed with the two-way ANOVA with Tukey's post hoc test for multiple comparisons or with the two-way t-test when only two groups were compared. The differences in the cell cycle percentages were assessed with the two-way ANOVA with Tukey's post hoc test.

PC-3 cells [3] = assay: Cell cycle analysis by flow cytometry, PC-3; format: cell-based, human; settings: Z conformer, 24 h; for percentage of cells in the G2/M phase: control 26.5%
Description: as §1

[4] = UV–VIS spectra of E/Z isomers in DMSO; format: physicochemical
Description: For this purpose, the UV–VIS spectra were measured for all synthesized hybrids (17a–17l) at concentrations from 20 to 500 µM in dimethyl sulfoxide (DMSO) in light at λ 505 nm and for (17a–17c), (17e–17g), and (17i–17l) at λ 525 nm, respectively, as detailed in Table 1 (see Section S4.4 in Supplementary Materials).

COc1cc(/C=C/C(=O)c2cccc(/N=N/c3c(F)cccc3F)c2)cc(OC)c1 [Compound 17j]
Z isomer, changes over time ([1]; 0 h): 73.2% | Z isomer, changes over time ([1]; 1 h): 72.55% | Z isomer, changes over time ([1]; 2 h): 71.89% | Z isomer, changes over time ([1]; 3 h): 71.23% | Z isomer, changes over time ([1]; 4 h): 71% | Z isomer, changes over time ([1]; 5 h): 70.01% | Z isomer, changes over time ([1]; 6 h): 69.58% | Z isomer, changes over time ([1]; 7 h): 69.12% | Z isomer, changes over time ([1]; 8 h): 67.9% | Δ (Z to E change 0 h to 8 h) [1]: 5.3% | cells undergoing the G0/G1 phase (BJ fibroblasts; decrease from 86.4): 51.5% | cells in the S phase (BJ fibroblasts; increase from 0.4): 8% | cells in the G2/M phase (BJ fibroblasts; increase from 11.9): 15.6% | IC50 difference between PC-3 and BJ cells (PC-3 cells [2]; E conformer): 2.2 fold | normalized asymptote (normalized limit) (PC-3 cells [2]; E conformer, 24 h): 50.0 ± 9.9% | normalized asymptote (normalized limit) (PC-3 cells [2]; E conformer, 48 h): 15.0 ± 0.2% | IC50 (PC-3 cells [2]; PC-3, 24 h, E conformer, 24 h incubation): 14.6 ± 1 µM | IC50 (PC-3 cells [2]; PC-3, 24 h, Z conformer, 525 nm illumination, 24 h treatment): 12 ± 4.42 µM | IC50 (PC-3 cells [2]; PC-3, 48 h, E conformer, 48 h incubation): 5.8 ± 0.8 µM | IC50 (PC-3 cells [2]; PC-3, 48 h, Z conformer, 525 nm illumination, 48 h treatment): 4.75 ± 1 µM | normalized asymptote (ratio of lower to upper asymptote) (PC-3 cells [2]; Z conformer, 24 h): 44.9 ± 3.7% | normalized asymptote (ratio of lower to upper asymptote) (PC-3 cells [2]; Z conformer, 48 h): 0.9 ± 0.9% | percentage of cells in the G2/M phase (PC-3 cells [3]; 20 µM): 30.2% | percentage of cells in the S phase (PC-3 cells [3]; 30 µM): 28.8% | percentage of cells in the G2/M phase (PC-3 cells [3]; 30 µM): 37.0% | percentage of cells in the S phase (PC-3 cells [3]; 40 µM): 31% | percentage of cells in the G2/M phase (PC-3 cells [3]; 40 µM): 32.1% | εmax (n→π*) ([4]; E isomer): 922 dm^3·mol^−1·cm^−1 | λmax n→π* (E) ([4]; E isomer): 448.3 nm | εmax (n→π*) ([4]; Z isomer): 1130 dm^3·mol^−1·cm^−1 | λmax n→π* (Z) ([4]; Z isomer): 417.4 nm | Δ λmax n→π* ([4]; between E and Z isomers): 30.9 nm
